# Values joined by “and” are separate entries in the source; they are usually repeats but may differ in a detail not shown here. Equal values may be shown once.
# How the values were obtained:
# Assay in all cases: normalised viability (% of control), CellTiter-Blue; higher = more viable cells (about 100 = DMSO control)
# Conditions in all cases: incubation time: 72 h
# MDA-MB-436 = system: MDA-MB-436
# Summary of the method: (§1)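 Vehicle (100) and a positive kill control (0) anchored the normalisation of each plate, and Z'-factor was used for quality control. Breast cancer cell lines in 20 µl suspension were incubated 72 h over compound in 5 µl medium in 384-well plates, followed by CellTiter-Blue at 560/590 nm. The value is normalised viability at a single listed concentration of the series.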
# BT-474 = system: BT-474
# Summary of the method: as §1
# HDQ-P1 [1] = system: HDQ-P1
# Summary of the method: as §1
# HCC1143 = system: HCC1143
# Summary of the method: as §1
# MFM-223 = system: MFM-223
# Summary of the method: as §1
# BT-549 = system: BT-549
# Summary of the method: as §1
# CAL-85-1 = system: CAL-85-1
# Method: (§2)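 DSRT, CellTiter-Blue viability, 72 h incubation. Signal is normalised to DMSO and benzethonium chloride controls. Value is the normalised response at dose 9.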
# DU-4475 = system: DU-4475
# Method: as §2
# HDQ-P1 [2] = system: HDQ-P1; remark: listed apart in the source
# Method: as §2
# CAL-148 = system: CAL-148
# Method: as §2
# CAL-51 = system: CAL-51
# Method: as §2
# MDA-MB-453 = system: MDA-MB-453
# Method: as §2
SMILES,normalised viability (MDA-MB-436; 100 nM) [%],normalised viability (BT-474; 100 nM) [%],normalised viability (HDQ-P1 [1]; 10 nM) [%],normalised viability (HCC1143; 100 nM) [%],normalised viability (MFM-223; 100 nM) [%],normalised viability (BT-549; 100 nM) [%],further results
CC(=O)c1c(C)c2cnc(Nc3ccc(N4CCNCC4)cn3)nc2n(C2CCCC2)c1=O,111,95.7,108,82.3,88.1,108,–
Cn1cc(C2=Nc3cc(NC(=O)C(N)C4CCCCC4)cc4c3C2=CNNC4=O)cn1 (stereo unspecified),93.4,108,98.4,101,69.2,100,–
COc1cc2c(cc1O)CC[C@@H]1[C@@H]2CC[C@]2(C)[C@@H](O)CC[C@@H]12 [2-methoxyestradiol],100,121,98.8,99.8,108,91.7,–
Cc1sc2c(c1C)C(c1ccc(Cl)cc1)=N[C@@H](CC(=O)OC(C)(C)C)c1nnc(C)n1-2 [(+)JQ1],136,110,98.4,92.2,85.1,80.9,–
Oc1ncnc2[nH]ncc12 [Allopurinol],108,106,106,113,91.2,87.3,–
O=C1CN2Cc3c(ccc(Cl)c3Cl)N=C2N1 [Anagrelide],94.2,122,114,84.8,93,92.5,–
Nc1ncn([C@@H]2O[C@H](CO)[C@@H](O)[C@H]2O)c(=O)n1 [Azacitidine],89.3,107,108,91.5,94.7,106,–
O=NN(CCCl)C(=O)NCCCl [Carmustine],119,111,105,91.8,83.8,111,–
CC1=C2C[C@H]3[C@@H](CC=C4C[C@@H](O)CC[C@@]43C)[C@@H]2CC[C@]12O[C@@H]1C[C@H](C)CN[C@H]1[C@H]2C [Cyclopamine],96.3,124,120,116,103,111,–
CC(=O)O[C@@]12CO[C@@H]1C[C@H](O)[C@@]1(C)C(=O)[C@H](O)C3=C(C)[C@@H](OC(=O)[C@H](O)[C@@H](NC(=O)OC(C)(C)C)c4ccccc4)C[C@@](O)([C@@H](OC(=O)c4ccccc4)[C@H]21)C3(C)C [Docetaxel],–,–,–,–,–,–,normalised viability (MDA-MB-436; 10 nM): 51.1% and 52%; normalised viability (BT-474; 10 nM): 49.9% and 46.2%; normalised viability (HDQ-P1 [1]; 1 nM): 78.7% and 71.2%; normalised viability (HCC1143; 10 nM): 51.7% and 35.2%; normalised viability (MFM-223; 10 nM): 59.6% and 53.8%; normalised viability (BT-549; 10 nM): 28% and 25.4%
C[C@]12CC[C@@H]3c4ccc(OC(=O)N(CCCl)CCCl)cc4CC[C@H]3[C@@H]1CC[C@@H]2O [Estramustine],–,–,–,–,–,–,normalised viability (MDA-MB-436; 9.9 nM): 92.1%; normalised viability (BT-474; 9.9 nM): 113%; normalised viability (HDQ-P1 [1]; 0.99 nM): 109%; normalised viability (HCC1143; 9.9 nM): 105%; normalised viability (MFM-223; 9.9 nM): 95.9%; normalised viability (BT-549; 9.9 nM): 79.8%
CC1(C)CNc2cc(NC(=O)c3cccnc3NCc3ccncc3)ccc21 [Motesanib],79.7,87.7,88.1,79.1,80.2,88.1,–
C[C@]1(O)C[C@@H](c2nc(-c3ccc4ccc(-c5ccccc5)nc4c3)c3c(N)nccn32)C1 [OSI-906],94.5,110,76,105,95.5,84.4,–
CC[C@@H]1C(=O)OC[C@@H]1Cc1cncn1C [Pilocarpine],–,–,–,–,–,–,normalised viability (MDA-MB-436; 400 nM): 105%; normalised viability (BT-474; 400 nM): 116%; normalised viability (HDQ-P1 [1]; 40 nM): 108%; normalised viability (HCC1143; 400 nM): 90.1%; normalised viability (MFM-223; 400 nM): 92.8%; normalised viability (BT-549; 400 nM): 111%
COc1cc(F)c(F)c(Nc2ccc(I)cc2F)c1NS(=O)(=O)C1(C[C@H](O)CO)CC1 [RDEA119],90.4,98.7,74.8,90.8,85,77.4,–
CC(C)(C)c1cnc(CSc2cnc(NC(=O)C3CCNCC3)s2)o1 [SNS-032],104,85.5,132,76.5,82.7,91.7,–
CC(C)(C)c1cnc(CSc2cnc(NC(=O)C3CCNCC3)s2)o1 [SNS-032] (10000 nM),–,–,–,–,–,–,normalised viability (CAL-85-1): 2.06%; normalised viability (DU-4475): -0.36%; normalised viability (HDQ-P1 [2]): 12.7%; normalised viability (CAL-148): 21.8%; normalised viability (CAL-51): 4.67%; normalised viability (MDA-MB-453): 18.6%
Cn1cnc2c(F)c(Nc3ccc(Br)cc3Cl)c(C(=O)NOCCO)cc21 [Selumetinib],123,94.5,116,63.9,87.6,110,–
Cn1cnc2c(F)c(Nc3ccc(Br)cc3Cl)c(C(=O)NOCCO)cc21 [Selumetinib] (10000 nM),–,–,–,–,–,–,normalised viability (CAL-85-1): 49.6%; normalised viability (DU-4475): 0.33%; normalised viability (HDQ-P1 [2]): 65.7%; normalised viability (CAL-148): 89.9%; normalised viability (CAL-51): 80.3%; normalised viability (MDA-MB-453): 75.8%
Nc1nc2[nH]cnc2c(=S)[nH]1 [Thioguanine],103,109,103,82.7,95.2,94.6,–
Nc1nc2[nH]cnc2c(=S)[nH]1 [Thioguanine] (10000 nM),–,–,–,–,–,–,normalised viability (CAL-85-1): 61.8%; normalised viability (DU-4475): 73.8%; normalised viability (HDQ-P1 [2]): 58.5%; normalised viability (CAL-148): 42%; normalised viability (CAL-51): 54.2%; normalised viability (MDA-MB-453): 73.1%

# — the supplement of paper PMC4862054
